Data from patent US20050026263A1, “Multi-functional antibodies” (THE REGENTS OF THE UNIVERSITY OF CALIFORNIA, priority 2003, published 2005).
“Also recorded” adds a separate entry of the source.

Legend:
antibody 2D12.5 = experiment: competitive immunoassay (ELISA) of metal-DOTA complexes relative to Y-DOTA; assay type: binding, murine; conditions: for binding compared with the original Y^3+ complex / other rare earths: DOTA complexes, 37° C.; for relative binding of Y-DOTA molecules with different sidechain locations (FIG. 17): Y complexes
Text: FIG. 13 is graphical display showing the relative binding of metal-DOTA complexes to antibody 2D 12.5. A representative set of competitive binding curves obtained from ELISA experiments described in Example 3 below. Error bars (representing the standard error of the mean) are shown, but are generally smaller than the data points.
To determine the metal selectivity of the antibody 2D12.5, a competitive immunoassays was used to measure the binding constants of multiple metal-DOTA complexes relative to Y^3+-DOTA.
We examined the monoclonal antibody 2D12.5, initially developed to bind specifically to Y-DOTA for targeted radiotherapy (see, e.g., Goodwin et al., Cancer Res. 54: 5937-5946 (1994)), in order to determine the scope of its activity. To assess the metal selectivity of antibody 2D12.5, a competitive immunoassay to measure the binding constants of various metal-DOTA complexes relative to the original Y^3+ complex was developed (FIG. 12). Briefly, 2D12.5 was incubated at 37° C. in the presence of immobilized Y-DOTA and a soluble metal-DOTA competitor. The metal-DOTA concentration was varied from μM to pM in order to determine the relative binding affinity of 2D12.5 for each metal chelate in comparison to Y-DOTA. Binding was measured by standard methods known to those of skill in the art. The DOTA analog used to evaluate binding was [S]-2-(p-nitrobenzyl)-DOTA, which is similar to the original antigen.

2D12.5 = experiment: relative binding affinities of metal NBD/AABD complexes and DTPA to 2D12.5; set-up: species or system murine
Experimental: FIG. 18 is a graphical display showing the relative binding affinities of the NBD complexes of various metal ions relative to Y-NBD.
Relative binding affinities of NBD complexes of various metals ions relative to Y-NBD were determined by methods known in the art and described herein and shown in FIG. 18.

N85D_G54C 2D12.5 mutant = experiment: permanent binding of metal-AABD and metal-NBD complexes, Western blot (Example 10); conditions: metal-NBD complexes
Experimental: The native antibody 2D12.5 binds all rare earth DOTA complexes with high affinity (Corneillie et al., J. Am. Chem. Soc. 125:3436-37, 2003) and other metals with affinities that are weaker. […] Therefore, this mutant was selected for the present example.
Metallation of Chelates with stable metal cations. Metals tested in this experiment included Y, La, Lu, Sr and Sc. Stock chelate concentrations were measured using a Co-57 metal binding assay (Meares et al., Anal. Biochem. 142:68-78, 1984). Stock metal solutions (approximately 0.2 M) were prepared by dissolving the appropriate gravimetrically measured rare earth chloride salt in 0.05 M HCl. As an example, YCl3 (2.5 equivalents) was added to 25 μL of NBD ([…]) dissolved in 0.1 M tetramethylammonium acetate, and the pH was adjusted to 5 by the addition of triethylamine. The metallation was allowed to proceed overnight at 50° C. Samples were promptly frozen at −70° C., and metallation efficiency was assessed using a competitive metal-binding assay with Co-57^3. Excess metal was scavenged with DTPA, which has very low affinity for the antibody (<<1%).
Metal-AABD and metal-NBD complexes were incubated with 2D12.5 Fab mutant N85D_G54C and samples denatured, reduced and separated by SDS-PAGE, as described for Y-90 in the previous examples. […]

## O=C([O-])CN1CCN(CC(=O)[O-])CCN(CC(=O)[O-])CCN(CC(=O)[O-])CC1.[Eu+3] [Eu-DOTA]
Antibody 2D12.5
  binding compared with the original Y^3+ complex / other rare earths: strongest binders

## (5-Amino-2-methoxy-phenyl)-carboxymethyl)-DOTA
Antibody 2D12.5
  relative binding of Y-DOTA molecules with different sidechain locations (FIG. 17): decrease in the binding affinity

## O=C(O)CN1CCN(CC(=O)O)CCN(CC(=O)O)[C@H](Cc2ccc([N+](=O)[O-])cc2)CN(CC(=O)O)CC1 (single isomer, unassigned) [(R)-isomer of 2-(4-nitrobenzyl)-DOTA]
Antibody 2D12.5; coordinated metal Y^3+ (FIG. 16)
  decrease of affinity as compared to the (S), Λ isomer: less than an order of magnitude

## O=C(O)CN(CCN(CC(=O)O)CC(=O)O)CCN(CC(=O)O)CC(=O)O [DTPA]
2D12.5
  affinity for the antibody: < 1%

## O=C(O)CN1CCN(CC(=O)O)CCN(CC(=O)O)[C@@H](Cc2ccc([N+](=O)[O-])cc2)CN(CC(=O)O)CC1 [NBD]
N85D_G54C 2D12.5 mutant
  permanent bond with N85D_G54C 2D12.5, non-electrophilic negative control: negative

## O=C(O)CN1CCN(CC(=O)O)CCN(CC(=O)O)[C@@H](Cc2ccc([N+](=O)[O-])cc2)CN(CC(=O)O)CC1 [Y-NBD, (S)-2-(4-nitrobenzyl)-DOTA]
Antibody 2D12.5
  relative binding of Y-DOTA molecules with different sidechain locations (FIG. 17): clearly stronger
Antibody 2D12.5; coordinated metal Y^3+
  relative binding of Y-DOTA isomers (FIG. 16): preferred isomer for binding
2D12.5
  binding rank of NBD complexes among the rare earths: one of the strongest binders

## O=C([O-])CN1CCN(CC(=O)[O-])CCN(CC(=O)O)CCN(CC(=O)[O-])CC1.[Gd+3] [Gd-DOTA]
Antibody 2D12.5
  binding compared with the original Y^3+ complex / other rare earths: bind more tightly; also recorded: strongest binders
